Key:
MIN6 cell = test: Insulin secretion test using MIN6 cell; format: cell-based, murine; conditions: MIN6 cell; glucose 14.5 mmol/l or 8.4 mmol/l
Procedure: Culturing MIN6 cell and testing insulin secretion using MIN6 cell were carried out according to the method described in Diabetorogia, 36, 1139-1145 (1993).
In other words, the influence of a compound on the insulin secretion activity in the presence of 14.5 mmol/l glucose was assessed by assaying the amount of insulin in the cell culture supernatant collected as follows.
The MIN6 cell cultured in a 24-well plate was washed twice with 1 ml of buffer A [119 mmol/l NaCl, 4.74 mmol/l KCl, 2.54 mmol/l CaCl2, 1.19 mmol/l MgSO4, 1.19 mmol/l KH2PO4, 10 mmol/l 2-[4-(2-hydroxylethyl)-1-piperadinyl]ethanesulfonic acid, 0.1% BSA, pH 7.3] containing 2 mmol/l glucose. Subsequently, the resulting cell was incubated in 1 ml of the buffer A containing 2 mmol/l glucose at 37° C. for 45 minutes. The culture supernatant was exchanged with the buffer A (1 ml) containing test compounds of various concentrations and 8.4 mmol/l glucose and incubated at 37° C. for 45 minutes to collect the culture supernatant.
Antibody-reactive insulin secreted in the culture supernatant was assayed by radioimmunoassay [Methods in Investigative and Diagnostic Endocrinology, Vol. 2A, 2B, North-Holland Publishing Co., Amsterdam (1973)] after the culture supernatant was diluted with phosphate buffer containing 1% BSA, 0.1% Tween 20, 0.12% EDTA 2Na, and 0.1% sodium azide. A standard curve was prepared by using human insulin as the standard substance, and individual insulin values were calculated on the basis of the curve.

His-p31 protein = target: T1, His-p31 protein (Mus musculus, UniProt Q99LB2); test: Enzyme activity inhibition of His-p31 protein (NADPH decrease, p-chlorobenzaldehyde); format: biochemical; conditions: p-chlorobenzaldehyde 250 μmol/l, NADPH 5 μmol/l, 37° C., absorbance at 340 nm
T1 construct: a gene part encoding the full-length p31 protein was prepared by polymerase chain reaction (PCR); made in house; host or cells: Escherichia coli BL21 / pET-14b-p31
T1 sequence (Q99LB2 20-279 limits assumed): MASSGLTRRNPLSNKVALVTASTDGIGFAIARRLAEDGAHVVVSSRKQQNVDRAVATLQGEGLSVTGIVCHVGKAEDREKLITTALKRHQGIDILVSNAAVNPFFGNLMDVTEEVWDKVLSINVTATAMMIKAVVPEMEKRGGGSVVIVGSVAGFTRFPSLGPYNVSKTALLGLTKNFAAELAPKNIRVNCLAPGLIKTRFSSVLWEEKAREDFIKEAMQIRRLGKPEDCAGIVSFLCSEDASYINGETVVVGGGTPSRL
Procedure: NADPH was added to 1 ml of a solution of 10 mmol/Tris-HCl, 100 mmol/l NaCl and 2 mmol/l EDTA, pH 7.4 containing the His-p31 protein prepared in Example 12 at 1 μg/ml and p-chlorobenzaldehyde at 250 μmol/l to give a final concentration of 5 μmol/l and incubated at 37° C. Then, the NADPH decrease following the decomposition of p-chlorobenzaldehyde in the presence or absence of a tested substance was detected at the absorbance at 340 nm.

`CCCN1C(=O)N2C[C@@H](Cc3ccccc3)N=C2c2[nH]c(C3CCCC3)nc21` [compound 16] was tested, and the “Insulin secretory activity (%)” value (MIN6 cell) was 83.2% and the “enzyme activity inhibition of the His-p31 protein” value (His-p31 protein) was “strongly inhibited the activity of the protein”.
